# From US20150011740A1, “FLUORINE-CONTAINING WATER SOLUBLE PLATINUM COMPLEXES FOR TUMOR TREATMENT AND PROCESS OF PREPARING SAME” (GUDUI BIOPHARMA TECHNOLOGY INC., priority 2011, published 2015)
# Like-named read-outs stand apart in the source and are kept apart here.
# Key:
# [1] = Experiment-2: stability, half-life in phosphate buffer (PBS) pH 7 at room temperature; conditions: phosphate buffer (PBS) pH 7, room temperature
# [2] = tested on: L1210 tumor cells; test: Experiment-3: antitumor efficacy in L1210 tumor-bearing CDF1 mice (ILS); format: in vivo; conditions: for Weight Changes: first day to seventh day
# Procedure: In the following test, antitumor efficacy studies were performed using 8-9 weeks old female CDF1 mice, the average weight of the animal is 20-25 grams (The experimental animals were purchased from Vital River Laboratory Animal Technology Co. Ltd.). L1210 tumor cells (about 10^5 cells per mouse) were inoculated intraperitoneally. The fluorine-containing water-soluble platinum complexes were used to treat the tumor-bearing animals and the efficacy was compared with the clinical platinum antitumor drugs. […] Drugs were administered intraperitoneally on day 1 and day 4 after tumor cell transplantation. The number of experimental animals in each group was 6.
# The increase in life span (ILS) is calculated as follows:
# Wherein, St=the weighted median survival time of treated animals; Su=the weighted median survival time of untreated animals
# [3] = background data of clinical drugs; cited from earlier work
# [4] = Experiment-1: solubility in water at room temperature
# [5] = physchem; conditions: buffer, pH 7
# [6] = buffer, pH 7
# [7] = 1.25 mg/Kg i.p. day 1 and day 4
compound,measurement,setting,value
"cis-[trans-(1R,2R)-diaminocyclohexane] Pt (II) (1-O-D-glucoside-propane-3-fluoro-3,3-dicarboxylate) [Example 1]",half-life,[1],44 h
"N.N.O=C([O-])C1(C(=O)[O-])CCC1.[Pt+2] [Carboplatin, carboplatin]",ILS,[2]; 20 mg/Kg i.p. day 1 and day 4,10%
same,Survival Animals on Day 42,[2]; 20 mg/Kg i.p. day 1 and day 4,0/6
same,Weight Changes,[2]; 20 mg/Kg i.p. day 1 and day 4,+0 g
same,ILS,[2]; 40 mg/Kg i.p. day 1 and day 4,24%
same,Survival Animals on Day 42,[2]; 40 mg/Kg i.p. day 1 and day 4,0/6
same,Weight Changes,[2]; 40 mg/Kg i.p. day 1 and day 4,-0.3 g
same,ILS,[2]; 80 mg/Kg i.p. day 1 and day 4,55%
same,Survival Animals on Day 42,[2]; 80 mg/Kg i.p. day 1 and day 4,0/6
same,Weight Changes,[2]; 80 mg/Kg i.p. day 1 and day 4,-1.2 g
same,Water Solubility,[3],17.0 mg/mL
same,solubility,[4],17.0 mg/1 mL H2O
"O=C1[O][Pt]2([NH][C@@H]3CCCC[C@H]3[NH]2)[O]C1=O [Oxaliplatin, oxaliplatin]",half-life,[1],24 h
"O=C1[O][Pt]([NH]C2CC2)([NH]C2CC2)[O]C(=O)C1(F)CCOC1O[C@H](CO)[C@@H](O)[C@H](O)[C@H]1O (stereo partly drawn) [Example 17, dicyclopropylamino platinum (II) (1-O-D-glucoside-propane-3-fluoro-3,3-dicarboxylate)]",half-life,[5],62 h
"cis-[trans-(1R,2R)-diaminocyclohexane] Pt (II) (1-O-D-mannoside-propane-3-fluoro-3,3-dicarboxylate) [Example 9]",half-life,[6],48 h
"N.N.[Cl][Pt][Cl] [Cisplatin, cisplatin]",ILS,[2]; [7],36%
same,Survival Animals on Day 42,[2]; [7],0/6
same,ILS,[2]; 2.5 mg/Kg i.p. day 1 and day 4,100%
same,Survival Animals on Day 42,[2]; 2.5 mg/Kg i.p. day 1 and day 4,0/6
same,Survival Animals on Day 42,[2]; 5.0 mg/Kg i.p. day 1 and day 4,3/6
"[NH2][Pt]1([NH2])[O]C(=O)C(F)(COC2O[C@H](CO)[C@@H](O)[C@H](O)[C@H]2O)C(=O)[O]1 (stereo partly drawn) [Example 24, diamine platinum (II) (1-O-D-glucoside-ethane-2-fluoro-2,2-dicarboxylate)]",half-life,[5],73 h
"O=C1[O][Pt]2([NH][C@@H]3CCCC[C@H]3[NH]2)[O]C(=O)C1(F)COC1O[C@H](CO)[C@@H](O)[C@H](O)[C@H]1O (stereo partly drawn) [Example 23, cis-[trans-(1R,2R)-diaminocyclohexane]platinum (II) (1-O-D-glucoside-ethane-2-fluoro-2,2-dicarboxylate)]",half-life,[5],89 h
"[NH2][Pt]1([NH2])[O]C(=O)C(F)(CCOC2O[C@H](CO)[C@@H](O)[C@H](O)[C@H]2O)C(=O)[O]1 (stereo partly drawn) [Example 3, diamine Pt (II) (1-O-D-glucoside-propane-3-fluoro-3,3-dicarboxylate)]",half-life,[5],52 h
